Drawing on patent publication US8648066B2 (Exelixis, Inc., priority 2009, dated 2014), this text covers IC50 for 25 compounds.

SMILES strings stand for the structures. Some results are limits rather than exact numbers.

For orientation: IC50 means the point on the concentration scale where inhibition reaches its midpoint.

The test concerns the target mTOR/GbL/Raptor (mTORC1) (Homo sapiens, UniProt P42345). In words: mTOR/GbL/Raptor (mTORC1) ELISA assay. Type of test: biochemical. The note with it: phosphorylation of 4E-BP1; 0.2 nM mTORC1, 10 μM ATP; read-out: IC50 in this assay (mTORC1 ELISA). An outline of the steps:
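ELISA read-out: phospho-4E-BP1 captured on Ni-chelate plates and detected with anti-phospho antibody plus HRP-anti-IgG luminescence. The kinase step ran 120 min at ambient temperature with 0.2 nM human mTORC1, 10 µM ATP, 50 nM His-4E-BP1, 10 mM MnCl2, pH 7.2 HEPES.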
On to `CC[C@H]1CCc2c(ncnc2N2CCOc3ccc(-c4cnc(N)c(S(=O)(=O)NCC(C)(C)N)c4)cc3C2)C1` [Example 407, 2-amino-N-(2-amino-2-methylpropyl)-5-{4-[(7S)-7-ethyl-5,6,7,8-tetrahydroquinazolin-4-yl]-2,3,4,5-tetrahydro-1,4-benzoxazepin-7-yl]pyridine-3-sulfonamide], for which the IC50 lay within 10 to 50 nM.

As for `CCC(N)CNS(=O)(=O)c1cc(-c2ccc3c(c2)CN(c2ncnc4c2CC(C)(C)CC4)CCO3)cnc1N` (stereo not shown) [Example 408, 2-amino-N-(2-aminobutyl)-5-[4-(6,6-dimethyl-5,6,7,8-tetrahydroquinazolin-4-yl)-2,3,4,5-tetrahydro-1,4-benzoxazepin-7-yl]pyridine-3-sulfonamide], the IC50 lay within 10 to 50 nM.

In the case of `CC1(C)CCc2ncnc(N3CCOc4ccc(-c5cnc(N)c(S(=O)(=O)NCCN)c5)cc4C3)c2C1` [Example 409, 2-amino-N-(2-aminoethyl)-5-[4-(6,6-dimethyl-5,6,7,8-tetrahydroquinazolin-4-yl)-2,3,4,5-tetrahydro-1,4-benzoxazepin-7-yl]pyridine-3-sulfonamide], the half-inhibitory concentration (IC50) was ≤ 10 nM.

Regarding `CC(N)CNS(=O)(=O)c1cc(-c2ccc3c(c2)CN(c2ncnc4c2CC(C)(C)CC4)CCO3)cnc1N` (stereo not shown) [Example 410, 2-amino-N-(2-aminopropyl)-5-[4-(6,6-dimethyl-5,6,7,8-tetrahydroquinazolin-4-yl)-2,3,4,5-tetrahydro-1,4-benzoxazepin-7-yl]pyridine-3-sulfonamide], the half-inhibitory concentration (IC50) lay within 50 to 250 nM.

Turning to `CC(C)(CN)CNS(=O)(=O)c1cc(-c2ccc3c(c2)CN(c2ncnc4c2CC(C)(C)CC4)CCO3)cnc1N` [Example 411, 2-amino-N-(3-amino-2,2-dimethylpropyl)-5-[4-(6,6-dimethyl-5,6,7,8-tetrahydroquinazol-4-yl)-2,3,4,5-tetrahydro-1,4-benzoxazepin-7-yl]pyridine-3-sulfonamide], the IC50 was in the range of 10 to 50 nM.

`CC1(C)CCc2ncnc(N3CCOc4ccc(-c5cnc(N)c(S(=O)(=O)NCC(O)CN)c5)cc4C3)c2C1` (stereo not shown) [Example 412, 2-amino-N-(3-amino-2-hydroxypropyl)-5-[4-(6,6-dimethyl-5,6,7,8-tetrahydroquinazolin-4-yl)-2,3,4,5-tetrahydro-1,4-benzoxazepin-7-yl]pyridine-3-sulfonamide]: the IC50 was 10 to 50 nM.

For `CC(C)(N)CCNS(=O)(=O)c1cc(-c2ccc3c(c2)CN(c2ncnc4c2CC(C)(C)CC4)CCO3)cnc1N` [Example 413, 2-amino-N-(3-amino-3-methylbutyl)-5-[4-(6,6-dimethyl-5,6,7,8-tetrahydroquinazolin-4-yl)-2,3,4,5-tetrahydro-1,4-benzoxazepin-7-yl]pyridine-3-sulfonamide], the IC50 is 50 to 250 nM.

In the case of `CC1(C)CCc2ncnc(N3CCOc4ccc(-c5cnc(N)c(S(=O)(=O)NCCCN)c5)cc4C3)c2C1` [Example 414, 2-amino-N-(3-aminopropyl)-5-[4-(6,6-dimethyl-5,6,7,8-tetrahydroquinazolin-4-yl)-2,3,4,5-tetrahydro-1,4-benzoxazepin-7-yl]pyridine-3-sulfonamide], the IC50 lay within 10 to 50 nM.

Take `CC1(C)CCc2ncnc(N3CCOc4ccc(-c5cnc(N)c(S(=O)(=O)NCC6CNC6)c5)cc4C3)c2C1` [Example 415, 2-amino-N-(azetidin-3-ylmethyl)-5-[4-(6,6-dimethyl-5,6,7,8-tetrahydroquinazolin-4-yl)-2,3,4,5-tetrahydreo-1,4-benzoxazepin-7-yl]pyridine-3-sulfonamide]: the IC50 lay in the range of 10 to 50 nM.

`CC1(C)CCc2ncnc(N3CCOc4ccc(-c5cnc(N)c(S(=O)(=O)N[C@H]6CC[C@H](N)CC6)c5)cc4C3)c2C1` [Example 416, 2-amino-N-(trans-4-aminocyclohexyl)-5-[4-(6,6-dimethyl-5,6,7,8-tetrahydroquinazolin-4-yl)-2,3,4,5-tetrahydro-1,4-benzoxazepin-7-yl]pyridine-3-sulfonamide]: the IC50 lay within 50 to 250 nM.

`Cc1nc2c(c(N3CCOc4ccc(-c5cnc(N)c(S(=O)(=O)N(C)C)c5)cc4C3)n1)CC(C)(C)CC2` [Example 417, 2-amino-N,N-dimethyl-5-[4-(2,6,6-trimethyl-5,6,7,8-tetrahydroquinazolin-4-yl)-2,3,4,5-tetrahydro-1,4-benzoxazepin-7-yl]pyridine-3-sulfonamide]: the IC50 is 50 to 250 nM.

Turning to `CC1(C)CCc2ncnc(N3CCOc4ccc(-c5cnc(N)c(S(=O)(=O)NCC6(N)CC6)c5)cc4C3)c2C1` [Example 418, 2-amino-N-[(1-aminocyclopropyl)methyl]-5-[4-(6,6-dimethyl-5,6,7,8-tetrahydroquinazolin-4-yl)-2,3,4,5-tetrahydro-1,4-benzoxazepin-7-yl]pyridine-3-sulfonamide], the IC50 fell in the range of 10 to 50 nM.

As to `Cc1nc2c(c(N3CCOc4ccc(-c5cnc(N)c(S(=O)(=O)NCC6CCN(C)CC6)c5)cc4C3)n1)CC(C)(C)CC2` [Example 419, 2-amino-N-[(1-methylpiperidin-4-yl)methyl]-5-[4-(2,6,6-trimethyl-5,6,7,8-tetrahydroquinazolin-4-yl)-2,3,4,5-tetrahydro-1,4-benzoxazepin-7-yl]pyridine-3-sulfonamide], the IC50 is 250 to 1000 nM.

Regarding `CC1=Cc2ncnc(N3CCOc4ccc(-c5cnc(N)c(S(=O)(=O)NCC6CCN(C)CC6)c5)cc4C3)c2CC1(C)C` [Example 420, 2-amino-N-[(1-methylpiperidin-4-yl)methyl]-5-[4-(6,6,7-trimethyl-5,6-dihydroquinazolin-4-yl)-2,3,4,5-tetrahydro-1,4-benzoaxepin-7-yl]pyridine-3-sulfonamide], the concentration for half-maximal inhibition (IC50) was in the range of 250 to 1000 nM.

Regarding `Cc1nc2c(c(N3CCOc4ccc(-c5cnc(N)c(S(=O)(=O)N[C@@H]6CCN(C)C6)c5)cc4C3)n1)CC(C)(C)CC2` [Example 421, 2-amino-N-[(3R)-1-methylpyrrolidin-3-yl]-5-[4-(2,6,6-trimethyl-5,6,7,8-tetrahydroquinazolin-4-yl)-2,3,4,5-tetrahydro-1,4-benzoxazepin-7-yl]pyridine-3-sulfonamide], the IC50 was 250 to 1000 nM.

`CC1=CC(C)(C)Cc2c1ncnc2N1CCOc2ccc(-c3cnc(N)c(S(=O)(=O)N[C@@H]4CCN(C)C4)c3)cc2C1` [Example 422, 2-amino-N-[(3R)-1-methylpyrrolidin-3-yl]-5-[4-(6,6,8-trimethyl-5,6-dihydroquinazolin-4-yl)-2,3,4,5-tetrahydro-1,4-benzoxazepin-7-yl]pyridine-3-sulfonamide]: the IC50 was in the range of 50 to 250 nM.

`CN(C)CCNS(=O)(=O)c1cc(-c2ccc3c(c2)CN(c2ncnc4c2CC(C)(C)CC4)CCO3)cnc1N` [Example 423, 2-amino-N-[2-(dimethylamino)ethyl]-5-[4-(6,6-dimethyl-5,6,7,8-tetrahydroquinazolin-4-yl)-2,3,4,5-tetrahydro-1,4-benzoxazepin-7-yl]pyridine-3-sulfonamide]: the IC50 lay in the range of 50 to 250 nM.

`CC1=Cc2ncnc(N3CCOc4ccc(-c5cnc(N)c(S(=O)(=O)NC[C@H]6CCN(C)C6)c5)cc4C3)c2CC1(C)C` [Example 424, 2-amino-N-{[(3S)-1-methylpyrrolidin-3-yl]methyl}-5-[4-(6,6,7-trimethyl-5,6-dihydroquinazolin-4-yl)-2,3,4,5-tetrahydro-1,4-benzoxazepin-7-yl]pyridine-3-sulfonamide]: the IC50 was in the range of 50 to 250 nM.

As to `CC1(C)CCc2ncnc(N3CCOc4ccc(-c5cnc(N)c(S(=O)(=O)NC6CC7CCC(C6)N7)c5)cc4C3)c2C1` (stereo not shown) [Example 425, 2-amino-N-8-azabicyclo[3.2.1]oct-3-yl-5-[4-(6,6-dimethyl-5,6,7,8-tetrahydroquinazolin-4-yl)-2,3,4,5-tetrahydro-1,4-benzoxazepin-7-yl]pyridine-3-sulfonamide], the half-inhibitory concentration (IC50) lay within 10 to 50 nM.

Consider `CC1(C)CCc2ncnc(N3CCOc4ccc(-c5cnc(N)c(S(=O)(=O)NC6CNC6)c5)cc4C3)c2C1` [Example 426, 2-amino-N-azetidin-3-yl-5-[4-(6,6-dimethyl-5,6,7,8-tetrahydroquinazolin-4-yl)-2,3,4,5-tetrahydro-1,4-benzoxazepin-7-yl]pyridine-3-sulfonamide], for which the IC50 lay in the range of 10 to 50 nM.

For the compound `CC1(C)CCc2ncnc(N3CCOc4ccc(-c5cnc(N)c(S(=O)(=O)NC6CCC6)c5)cc4C3)c2C1` [Example 427, 2-amino-N-cyclobutyl-5-[4-(6,6-dimethyl-5,6,7,8-tetrahydroquinazolin-4-yl)-2,3,4,5-tetrahydro-1,4-benzoxazepin-7-yl]pyridine-3-sulfonamide], the IC50 is 50 to 250 nM.

Turning to `CN(C)Cc1nc2c(c(N3CCOc4ccc(-c5ccc(Cl)c(C(N)=O)c5)cc4C3)n1)CC(C)(C)CC2` [Example 428, 2-chloro-5-(4-{2-[(dimethylamino)methyl]-6,6-dimethyl-5,6,7,8-tetrahydroquinazolin-4-yl}-2,3,4,5-tetrahydro-1,4-benzoxazepin-7-yl)benzamide], the IC50 is ≥ 2000 nM.

For the compound `Cc1cccc(Cl)c1S(=O)(=O)Nc1cc(-c2ccc3c(c2)CN(c2ncnc4c2CC(C)(C)CC4)CCO3)cnc1Cl` [Example 429, 2-chloro-N-{2-chloro-5-[4-(6,6-dimethyl-5,6,7,8-tetrahydroquinazolin-4-yl)-2,3,4,5-tetrahydro-1,4-benzoxazepin-7-yl]pyridin-3-yl}-6-methylbenzenesulfonamide], the IC50 was 250 to 1000 nM.

For `CC1(C)CCc2ncnc(N3CCOc4ccc(-c5cnc(N)c(S(=O)(=O)CCCO)c5)cc4C3)c2C1` [Example 430, 3-({2-amino-5-[4-(6,6-dimethyl-5,6,7,8-tetrahydroquinazolin-4-yl)-2,3,4,5-tetrahydro-1,4-benzoazepin-7-yl]pyridin-3-yl}sulfonyl)propan-1-ol], the IC50 is 10 to 50 nM.

With `CC1(C)CCc2ncnc(N3CCOc4ccc(-c5cnc(N)c(S(=O)(=O)CC(O)CO)c5)cc4C3)c2C1` (stereo not shown) [Example 431, 3-({2-amino-5-[4-(6,6-dimethyl-5,6,7,8-tetrahydroquinazolin-4-yl)-2,3,4,5-tetrahydro-1,4-benzoxazepin-7-yl]pyridin-3-yl}sulfonyl)propane-1,2-diol], the IC50 lay within 10 to 50 nM.
